Structures are written as SMILES.

The target in this test is T1, human CCR6 (Homo sapiens, UniProt P51684).
T1 construct: expressed in transfected cells; host or cells: HEK-293
T1 sequence (P51684 1-374): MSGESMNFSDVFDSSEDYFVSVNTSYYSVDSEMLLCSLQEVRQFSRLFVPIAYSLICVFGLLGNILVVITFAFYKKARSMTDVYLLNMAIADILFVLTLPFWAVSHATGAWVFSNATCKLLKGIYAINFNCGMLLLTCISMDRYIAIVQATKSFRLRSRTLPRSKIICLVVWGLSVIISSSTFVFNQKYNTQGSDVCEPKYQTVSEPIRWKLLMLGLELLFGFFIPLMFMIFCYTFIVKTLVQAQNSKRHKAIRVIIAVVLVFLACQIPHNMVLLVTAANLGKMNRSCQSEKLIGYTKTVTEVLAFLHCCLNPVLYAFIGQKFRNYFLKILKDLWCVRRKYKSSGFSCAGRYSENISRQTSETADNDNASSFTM
Put plainly: FLIPR assay (inhibition of CCL20-induced calcium signal). Format: cell-based. As to conditions: HEK-293 cells expressing human CCR6; mean values where determined several times; read-out: FLIPR IC50. Put shortly: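 Dye-loaded HEK-293 cells expressing human CCR6 were preincubated with compound for 30 min at room temperature in the dark, then challenged with 10 nM CCL20 (final). Fluorescence was tracked on FLIPR, and baseline-subtracted peak emission over base after agonist addition gave inhibition dose-response curves for IC50.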
`CC(C)c1ccc([C@](O)(c2cnnc(Oc3ccc(CCO)cc3)c2)C2(C)CN(C)C2)cc1` [Example 395]: the IC50 is 60.1 nM.
For `CC(C)c1ccc([C@](O)(c2cnnc(Oc3ccc4c(c3)CCCO4)c2)C2(C)CN(C)C2)cc1` [Example 396] the value was 34.4 nM.
For `CC(C)c1ccc([C@](O)(c2cnnc(Oc3ccc4[nH]c(=O)oc4c3)c2)C2(C)CN(C)C2)cc1` [Example 397] the value was 29.1 nM; for `CCC(O)(C#Cc1cncc([C@@](O)(c2ccc(C(C)C)cc2)C2(C)CN(C)C2)c1)c1cc(C)ncn1` (some centres unmarked) [Example 398], 51.8 nM.
The value for `Cc1cc([C@@](C)(O)C#Cc2cncc([C@@](O)(c3ccc(C(C)C)cc3)C3(C)CN(C)C3)c2)ncn1` [Example 399] was 107 nM; that for `Cc1cc([C@](C)(O)C#Cc2cncc([C@@](O)(c3ccc(C(C)C)cc3)C3(C)CN(C)C3)c2)ncn1` [Example 400] was 160 nM.
For `CC(C)c1ccc([C@](O)(c2cncc(C#CC3(c4ccc(F)cc4)CC3)c2)C2(C)CN(C)C2)cc1` [Example 403], the IC50 was determined as 40.4 nM.
For `CC(C)c1ccc([C@](O)(c2cncc(C#CC3(O)CCN(C(=O)OC(C)(C)C)C3)c2)C2(C)CN(C)C2)cc1` (some centres unmarked) [Example 406] the value was 37.6 nM; for `CC(C)c1ccc([C@](O)(c2cncc(C#CC3CCN(C(=O)OC(C)(C)C)CC3)c2)C2(C)CN(C)C2)cc1` [Example 407], 51.8 nM; for `CCC(O)(CCc1cncc([C@@](O)(c2ccc(C(C)C)cc2)C2(C)CN(C)C2)c1)c1cc(C)ncn1` (stereo partly drawn) [Example 408, 1-{5-[(R)-(1,3-Dimethyl-azetidin-3-yl)-hydroxy-(4-isopropyl-phenyl)-methyl]-pyridin-3-yl}-3-(6-methyl-pyrimidin-4-yl)-pentan-3-ol], 138 nM.
The value for `COC(=O)c1ccccc1CCc1cncc([C@@](O)(c2ccc(C(C)C)cc2)C2(C)CN(C)C2)c1` [Example 409] was 48.8 nM; that for `CC(C)c1ccc([C@](O)(c2cncc(CCc3ccccc3CO)c2)C2(C)CN(C)C2)cc1` [Example 410] was 84.9 nM.
For `COc1cc(C(C)(O)CCc2cncc([C@@](O)(c3ccc(C(C)C)cc3)C3(C)CN(C)C3)c2)ncn1` (some centres unmarked) [Example 411] the value was 86.3 nM.
With `CC(C)c1ccc([C@](O)(c2cncc(CCC3(O)CCN(C(=O)OC(C)(C)C)C3)c2)C2(C)CN(C)C2)cc1` (some centres unmarked) [Example 412], the IC50 turned out to be 90 nM.
For `CC(C)c1ccc([C@](O)(c2cncc(CCc3cc4cccnc4[nH]3)c2)C2(C)CN(C)C2)cc1` [Example 413, (R)-(1,3-Dimethyl-azetidin-3-yl)-(4-isopropyl-phenyl)-{5-[2-(1H-pyrrolo[2,3-b]pyridin-2-yl)-ethyl]-pyridin-3-yl}-methanol] the value was 36.7 nM; for `CC(C)c1ccc([C@](O)(c2cncc(CCC3CCN(C(=O)OC(C)(C)C)CC3)c2)C2(C)CN(C)C2)cc1` [Example 414, 4-(2-{5-[(R)-(1,3-Dimethyl-azetidin-3-yl)-hydroxy-(4-isopropyl-phenyl)-methyl]-pyridin-3-yl}-ethyl)-piperidine-1-carboxylic acid tert-butyl ester], 34.7 nM; for `CC(C)c1ccc([C@](O)(c2cncc(CCC(C)(O)c3ccccn3)c2)C2(C)CN(C)C2)cc1` (some centres unmarked) [Example 415], 61.9 nM.
For `CC(C)c1ccc([C@](O)(c2cncc(CCC(O)(c3ccccn3)C3CC3)c2)C2(C)CN(C)C2)cc1` (some centres unmarked) [Example 416] the value was 14.7 nM.
For `Cc1cncc(C(C)(O)CCc2cncc([C@@](O)(c3ccc(C(C)C)cc3)C3(C)CN(C)C3)c2)c1` (some centres unmarked) [Example 417] the value was 118 nM.
`CC(C)c1ccc([C@](O)(c2cnnc(CCC3(O)CCCc4cccnc43)c2)C2(C)CN(C)C2)cc1` (stereo partly drawn) [Example 418, 8-(2-{5-[(R)-(1,3-Dimethyl-azetidin-3-yl)-hydroxy-(4-isopropyl-phenyl)-methyl]-pyridazin-3-yl}-ethyl)-5,6,7,8-tetrahydro-quinolin-8-ol]: the IC50 stood at 190 nM.
As to `COc1cccc(C(C)(O)CCc2cc([C@@](O)(c3ccc(C(C)C)cc3)C3(C)CN(C)C3)cnn2)n1` (stereo partly drawn) [Example 419, 4-{5-[(R)-(1,3-Dimethyl-azetidin-3-yl)-hydroxy-(4-isopropyl-phenyl)-methyl]-pyridazin-3-yl}-2-(6-methoxy-pyridin-2-yl)-butan-2-ol], the IC50 is 155 nM.
For `Cc1cccc(C(C)(O)CCc2cc([C@@](O)(c3ccc(C(C)C)cc3)C3(C)CN(C)C3)cnn2)n1` (stereo partly drawn) [Example 420, 4-{5-[(R)-(1,3-Dimethyl-azetidin-3-yl)-hydroxy-(4-isopropyl-phenyl)-methyl]-pyridazin-3-yl}-2-(6-methyl-pyridin-2-yl)-butan-2-ol] the value was 277 nM; for `CC(C)c1ccc(C(O)(c2cccc(N3CCCC3)n2)C2(C)CN(C)C2)cc1` (centres unmarked) [Example 421, (1,3-Dimethyl-azetidin-3-yl)-(4-isopropyl-phenyl)-(6-pyrrolidin-1-yl-pyridin-2-yl)-methanol], 712 nM.
The value for `CC(=O)N1CCC(F)(c2nc(-c3cncc([C@@](O)(c4ccc(C(C)C)cc4)C4(C)CN(C)C4)c3)no2)CC1` [Example 422] was 66.7 nM.
For `CC(=O)N1CCC(C)(c2nc(-c3cncc([C@@](O)(c4ccc(C(C)C)cc4)C4(C)CN(C)C4)c3)no2)CC1` [Example 423] the value was 61.8 nM.
Regarding `CC(C)c1ccc([C@](O)(c2cncc(OC3CCC(=O)CC3)c2)C2(C)CN(C)C2)cc1` [Example 424, 4-{5-[(R)-(1,3-Dimethyl-azetidin-3-yl)-hydroxy-(4-isopropyl-phenyl)-methyl]-pyridin-3-yloxy}-cyclohexanone], the IC50 is 107 nM.
For `CC(C)c1ccc([C@](O)(c2cncc(C3CCC(O)CC3)c2)C2(C)CN(C)C2)cc1` (stereo partly drawn) [Example 425, 4-{5-[(R)-(1,3-Dimethyl-azetidin-3-yl)-hydroxy-(4-isopropyl-phenyl)-methyl]-pyridin-3-yl}-cyclohexanol] the value was 1730 nM; for `CC(C)c1ccc([C@](O)(c2cncc(COC3CCCC3)c2)C2(C)CN(C)C2)cc1` [Example 426, (R)-(5-Cyclopentyloxymethyl-pyridin-3-yl)-(1,3-dimethyl-azetidin-3-yl)-(4-isopropyl-phenyl)-methanol], 17.7 nM.
The value for `CC(=O)N1CCC(OCc2cncc([C@@](O)(c3ccc(C(C)C)cc3)C3(C)CN(C)C3)c2)CC1` [Example 427] was 292 nM.
As to `CC(C)c1ccc([C@](O)(c2cnnc(C3CCOCC3)c2)C2(C)CN(C)C2)cc1` [Example 428, (R)-(1,3-Dimethyl-azetidin-3-yl)-(4-isopropyl-phenyl)-[6-(tetrahydro-pyran-4-yl)-pyridazin-4-yl]-methanol], the IC50 came out at 598 nM.
The value for `CC(C)c1ccc([C@](O)(c2cnnc(CCC(C)(O)c3ccccc3)c2)C2(C)CN(C)C2)cc1` (stereo partly drawn) [Example 429, 4-{5-[(R)-(1,3-Dimethyl-azetidin-3-yl)-hydroxy-(4-isopropyl-phenyl)-methyl]-pyridazin-3-yl}-2-phenyl-butan-2-ol] was 103 nM; that for `CC(C)c1ccc([C@](O)(c2cnnc(O[C@H]3CCOC3)c2)C2(C)CN(C)C2)cc1` [Example 430, (R)-(1,3-Dimethyl-azetidin-3-yl)-(4-isopropyl-phenyl)-{6-[(S)-(tetrahydro-furan-3-yl)oxy]-pyridazin-4-yl}-methanol] was 209 nM; that for `CC(C)c1ccc([C@](O)(c2cnnc(O[C@@H]3CCOC3)c2)C2(C)CN(C)C2)cc1` [Example 431, (R)-(1,3-Dimethyl-azetidin-3-yl)-(4-isopropyl-phenyl)-{6-[(R)-(tetrahydro-furan-3-yl)oxy]-pyridazin-4-yl}-methanol] was 197 nM.
For the compound `CC1CC(=O)N(c2cc([C@@](O)(c3ccc(C(C)C)cc3)C3(C)CN(C)C3)cnn2)C1` (some centres unmarked) [Example 432], the IC50 is 146 nM.
For `CC(C)c1ccc([C@](O)(c2cnnc(N3CCC(C(C)C)C3=O)c2)C2(C)CN(C)C2)cc1` (some centres unmarked) [Example 433] the value was 58.5 nM.
`CC(C)c1ccc([C@](O)(c2cnnc(N3CCC(C)(C)C3=O)c2)C2(C)CN(C)C2)cc1` [Example 434]: the IC50 is 147 nM.
As for `CC(C)c1ccc([C@](O)(c2cnnc(N3CC(C)(C)CC3=O)c2)C2(C)CN(C)C2)cc1` [Example 435], the IC50 stood at 175 nM.
For the compound `CC(C)c1ccc([C@](O)(c2cnnc(N3CC(C(F)(F)F)CC3=O)c2)C2(C)CN(C)C2)cc1` (some centres unmarked) [Example 437], the IC50 was determined as 95.2 nM.
The value for `CC(C)c1ccc([C@](O)(c2cnnc(N3CC(C4CC4)CC3=O)c2)C2(C)CN(C)C2)cc1` (some centres unmarked) [Example 438] was 53.6 nM.
The value for `CC(C)c1ccc([C@](O)(c2cnnc(N3CC4(CCOCC4)CC3=O)c2)C2(C)CN(C)C2)cc1` [Example 439] was 265 nM; that for `CC(C)c1ccc([C@](O)(c2cnnc(N3CC4(CCCCC4)OC3=O)c2)C2(C)CN(C)C2)cc1` [Example 440] was 50.7 nM; that for `CC(C)c1ccc([C@](O)(c2cnnc(N3CC(c4ccccn4)CC3=O)c2)C2(C)CN(C)C2)cc1` (some centres unmarked) [Example 441] was 118 nM.
For `COCCC1CCN(c2cc([C@@](O)(c3ccc(C(C)C)cc3)C3(C)CN(C)C3)cnn2)C1=O` (some centres unmarked) [Example 442] the value was 177 nM; for `CC(C)c1ccc([C@](O)(c2cnnc(N3CC(c4ccccc4)CC3=O)c2)C2(C)CN(C)C2)cc1` (some centres unmarked) [Example 443], 35.3 nM.
